From PubChem BioAssay (NCI)
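Step 1: Grow cells in 96-well plates. Step 2: Expose to compound for 48 hours at 5 concentrations. Step 3: Interpolate endpoints linearly; if unreached, use highest concentration. Abbreviation: GI50, concentration required for 50% inhibition of growth. TGI marks complete inhibition of growth.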

Experiments:
Experiment in all cases: growth of human tumour cells (NCI), 48 h
786-0 renal = test system: 786-0 renal
COLO 205 colon = test system: COLO 205 colon
NCI-H23 lung = test system: NCI-H23 lung
SK-MEL-28 melanoma = test system: SK-MEL-28 melanoma
MDA-MB-468 breast = test system: MDA-MB-468 breast
RXF 393 renal = test system: RXF 393 renal
ACHN renal = test system: ACHN renal
OVCAR-3 ovarian = test system: OVCAR-3 ovarian
NCI-H226 lung = test system: NCI-H226 lung
SK-MEL-5 melanoma = test system: SK-MEL-5 melanoma
HCC-2998 colon = test system: HCC-2998 colon
K-562 leukemia = test system: K-562 leukemia
M14 melanoma = test system: M14 melanoma
A498 renal = test system: A498 renal
HOP-92 NSCLC = test system: HOP-92 NSCLC
SF-539 CNS = test system: SF-539 CNS
SNB-75 CNS = test system: SNB-75 CNS
MDA-MB-231 breast = test system: MDA-MB-231 breast
MCF7 breast = test system: MCF7 breast
HOP-62 NSCLC = test system: HOP-62 NSCLC
CCRF-CEM leukemia = test system: CCRF-CEM leukemia
TK-10 renal = test system: TK-10 renal
UACC-257 melanoma = test system: UACC-257 melanoma
EKVX NSCLC = test system: EKVX NSCLC
UO-31 renal = test system: UO-31 renal
MOLT-4 leukemia = test system: MOLT-4 leukemia
OVCAR-8 ovarian = test system: OVCAR-8 ovarian
PC-3 prostate = test system: PC-3 prostate
U251 CNS = test system: U251 CNS
IGROV1 ovarian = test system: IGROV1 ovarian
T-47D breast = test system: T-47D breast
NCI/ADR-RES ovarian = test system: NCI/ADR-RES ovarian
MDA-MB-435 = test system: MDA-MB-435
SF-295 CNS = test system: SF-295 CNS
LOX IMVI melanoma = test system: LOX IMVI melanoma
A549 NSCLC = test system: A549 NSCLC
MALME-3M melanoma = test system: MALME-3M melanoma
SR leukemia = test system: SR leukemia
HT29 colon = test system: HT29 colon
OVCAR-5 ovarian = test system: OVCAR-5 ovarian
SNB-19 CNS = test system: SNB-19 CNS
OVCAR-4 ovarian = test system: OVCAR-4 ovarian
RPMI-8226 leukemia = test system: RPMI-8226 leukemia
SN12C renal = test system: SN12C renal
KM12 colon = test system: KM12 colon
HCT-15 colon = test system: HCT-15 colon
CAKI-1 renal = test system: CAKI-1 renal
SK-OV-3 ovarian = test system: SK-OV-3 ovarian
SF-268 CNS = test system: SF-268 CNS
UACC-62 melanoma = test system: UACC-62 melanoma
BT-549 breast = test system: BT-549 breast
NCI-H522 lung = test system: NCI-H522 lung
HS 578T breast = test system: HS 578T breast
NCI-H460 lung = test system: NCI-H460 lung
HCT-116 colon = test system: HCT-116 colon
SW-620 colon = test system: SW-620 colon
DU-145 prostate = test system: DU-145 prostate
SK-MEL-2 melanoma = test system: SK-MEL-2 melanoma
HL-60(TB) leukemia = test system: HL-60(TB) leukemia

COc1ccc(/C=C/c2nc3ccccc3n3c(-c4cccc([N+](=O)[O-])c4)nnc23)cc1
GI50 (786-0 renal): 1450 nM
TGI (786-0 renal): 2760 nM
GI50 (COLO 205 colon): 1760 nM
TGI (COLO 205 colon): 3660 nM
GI50 (NCI-H23 lung): 1510 nM
TGI (NCI-H23 lung): 3010 nM
GI50 (SK-MEL-28 melanoma): 2190 nM
TGI (SK-MEL-28 melanoma): 4940 nM
GI50 (MDA-MB-468 breast): 1130 nM
TGI (MDA-MB-468 breast): 2850 nM
GI50 (RXF 393 renal): 1240 nM
TGI (RXF 393 renal): 2550 nM
GI50 (ACHN renal): 1370 nM
TGI (ACHN renal): 2660 nM
GI50 (OVCAR-3 ovarian): 1270 nM
TGI (OVCAR-3 ovarian): 2610 nM
GI50 (NCI-H226 lung): 626 nM
TGI (NCI-H226 lung): 2490 nM
GI50 (SK-MEL-5 melanoma): 2060 nM
TGI (SK-MEL-5 melanoma): 5380 nM
GI50 (HCC-2998 colon): 2570 nM
TGI (HCC-2998 colon): 11300 nM
GI50 (K-562 leukemia): 307 nM
TGI (K-562 leukemia): 2140 nM
GI50 (M14 melanoma): 760 nM
TGI (M14 melanoma): 2170 nM
GI50 (A498 renal): 12400 nM
TGI (A498 renal): 28100 nM
GI50 (HOP-92 NSCLC): 1910 nM
TGI (HOP-92 NSCLC): 4930 nM
GI50 (SF-539 CNS): 1440 nM
TGI (SF-539 CNS): 2750 nM
GI50 (SNB-75 CNS): 4120 nM
TGI (SNB-75 CNS): 15900 nM
GI50 (MDA-MB-231 breast): 1800 nM
TGI (MDA-MB-231 breast): 4550 nM
GI50 (MCF7 breast): 1830 nM
TGI (MCF7 breast): 10100 nM
GI50 (HOP-62 NSCLC): 5470 nM
TGI (HOP-62 NSCLC): 18200 nM
GI50 (CCRF-CEM leukemia): 312 nM
TGI (CCRF-CEM leukemia): 1150 nM
GI50 (TK-10 renal): 2870 nM
TGI (TK-10 renal): 9900 nM
GI50 (UACC-257 melanoma): 3650 nM
TGI (UACC-257 melanoma): 15000 nM
GI50 (EKVX NSCLC): 3860 nM
TGI (EKVX NSCLC): 14800 nM
GI50 (UO-31 renal): 2000 nM
TGI (UO-31 renal): 8800 nM
GI50 (MOLT-4 leukemia): 1210 nM
TGI (MOLT-4 leukemia): 4100 nM
GI50 (OVCAR-8 ovarian): 1750 nM
TGI (OVCAR-8 ovarian): 4800 nM
GI50 (PC-3 prostate): 3010 nM
TGI (PC-3 prostate): 14500 nM
GI50 (U251 CNS): 1520 nM
TGI (U251 CNS): 3300 nM
GI50 (IGROV1 ovarian): 1890 nM
TGI (IGROV1 ovarian): 3770 nM
GI50 (T-47D breast): 3760 nM
TGI (T-47D breast): 16100 nM
GI50 (NCI/ADR-RES ovarian): 2100 nM
TGI (NCI/ADR-RES ovarian): 6930 nM
GI50 (MDA-MB-435): 1900 nM
TGI (MDA-MB-435): 5650 nM
GI50 (SF-295 CNS): 9610 nM
TGI (SF-295 CNS): 21400 nM
GI50 (LOX IMVI melanoma): 148 nM
TGI (LOX IMVI melanoma): 289 nM
GI50 (A549 NSCLC): 2650 nM
TGI (A549 NSCLC): 11000 nM
GI50 (MALME-3M melanoma): 581 nM
TGI (MALME-3M melanoma): 1980 nM
GI50 (SR leukemia): 247 nM
TGI (SR leukemia): 1360 nM
GI50 (HT29 colon): 1120 nM
TGI (HT29 colon): 2320 nM
GI50 (OVCAR-5 ovarian): 1770 nM
TGI (OVCAR-5 ovarian): 3610 nM
GI50 (SNB-19 CNS): 5840 nM
TGI (SNB-19 CNS): 18800 nM
GI50 (OVCAR-4 ovarian): 1680 nM
TGI (OVCAR-4 ovarian): 5320 nM
GI50 (RPMI-8226 leukemia): 1440 nM
TGI (RPMI-8226 leukemia): 4030 nM
GI50 (SN12C renal): 1140 nM
TGI (SN12C renal): 2360 nM
GI50 (KM12 colon): 2620 nM
TGI (KM12 colon): 10800 nM
GI50 (HCT-15 colon): 948 nM
TGI (HCT-15 colon): 2250 nM
GI50 (CAKI-1 renal): 2470 nM
TGI (CAKI-1 renal): 10400 nM
GI50 (SK-OV-3 ovarian): 5220 nM
TGI (SK-OV-3 ovarian): 17600 nM
GI50 (SF-268 CNS): 2770 nM
TGI (SF-268 CNS): 10200 nM
GI50 (UACC-62 melanoma): 1700 nM
TGI (UACC-62 melanoma): 4300 nM
GI50 (BT-549 breast): 1380 nM
TGI (BT-549 breast): 2920 nM
GI50 (NCI-H522 lung): 120 nM
TGI (NCI-H522 lung): 258 nM
GI50 (HS 578T breast): 3990 nM
TGI (HS 578T breast): 20700 nM
GI50 (NCI-H460 lung): 1690 nM
TGI (NCI-H460 lung): 4260 nM
GI50 (HCT-116 colon): 1080 nM
TGI (HCT-116 colon): 2270 nM
GI50 (SW-620 colon): 631 nM
TGI (SW-620 colon): 1870 nM
GI50 (DU-145 prostate): 1610 nM
TGI (DU-145 prostate): 4290 nM
GI50 (SK-MEL-2 melanoma): 2630 nM
TGI (SK-MEL-2 melanoma): 9090 nM
GI50 (HL-60(TB) leukemia): 1620 nM
TGI (HL-60(TB) leukemia): 10900 nM
